Key:
Format in all cases: functional, organism-based
Leishmania amazonensis [1] = assay: Tested in vitro for leishmanicidal activity against Leishmania amazonensis (PH8) at the concentration of 50 ug/mL; ++ indicates 80-90% lysis of parasites
Leishmania donovani [2] = assay: In vitro for leishmanicidal activity against Leishmania donovani (PP75) at the concentration of 100 ug/mL.
Leishmania donovani [3] = assay: Tested in vitro for leishmanicidal activity against Leishmania donovani (PP75) at the concentration of 50 ug/mL;++ indicates 80-90% lysis of parasites
Leishmania braziliensis [4] = assay: Tested in vitro for leishmanicidal activity against Leishmania brasiliensis (2903) at the concentration of 25 ug/mL;+ indicates Less than 70% lysis of parasites
Leishmania braziliensis [5] = assay: Tested in vitro for leishmanicidal activity against Leishmania brasiliensis (2903) at the concentration of 50 ug/mL;++ indicates 80-90% lysis of parasites
Leishmania donovani [6] = assay: Tested in vitro for leishmanicidal activity against Leishmania donovani (PP75) at the concentration of 25 ug/mL;+ indicates Less than 70% lysis of parasites
Leishmania braziliensis [7] = assay: Tested in vitro for leishmanicidal activity against Leishmania brasiliensis (2903) at the concentration of 10 ug/mL;+ indicates Less than 70% lysis of parasites
Leishmania donovani [8] = assay: In vitro for leishmanicidal activity against Leishmania donovani (PP75) at the concentration of 10 ug/mL.
Leishmania amazonensis [9] = assay: Tested in vitro for leishmanicidal activity against Leishmania amazonensis (PH8) at the concentration of 25 ug/mL; + indicates less than 70% lysis of parasites
Leishmania amazonensis [10] = assay: In vitro for leishmanicidal activity against Leishmania amazonensis (PH8) at the concentration of 100 ug/mL.
Leishmania braziliensis [11] = assay: In vitro for leishmanicidal activity against Leishmania brasiliensis (2903) at the concentration of 100 ug/mL.
Leishmania amazonensis [12] = assay: In vitro for leishmanicidal activity against Leishmania amazonensis (PH8) at the concentration of 10 ug/mL.
Leishmania donovani [13] = assay: Tested in vitro for leishmanicidal activity against Leishmania donovani (PP75) at the concentration of 50 ug/mL;+ indicates Less than 70% lysis of parasites
Leishmania amazonensis [14] = assay: Tested in vitro for leishmanicidal activity against Leishmania amazonensis (PH8) at the concentration of 50 ug/mL; + indicates less than 70% lysis of parasites
Leishmania braziliensis [15] = assay: Tested in vitro for leishmanicidal activity against Leishmania brasiliensis (2903) at the concentration of 50 ug/mL;+ indicates Less than 70% lysis of parasites
Leishmania donovani [16] = assay: In vitro for leishmanicidal activity against Leishmania donovani (PP75) at the concentration of 50 ug/mL.
Leishmania donovani [17] = assay: Tested in vitro for leishmanicidal activity against Leishmania donovani (PP75) at the concentration of 10 ug/mL;++ indicates 80-90% lysis of parasites
Leishmania amazonensis [18] = assay: In vitro for leishmanicidal activity against Leishmania amazonensis (PH8) at the concentration of 50 ug/mL.
Leishmania amazonensis [19] = assay: Tested in vitro for leishmanicidal activity against Leishmania amazonensis (PH8) at the concentration of 10 ug/mL; ++ indicates 80-90% lysis of parasites
Leishmania braziliensis [20] = assay: Tested in vitro for leishmanicidal activity against Leishmania brasiliensis (2903) at the concentration of 10 ug/mL;++ indicates 80-90% lysis of parasites
Leishmania amazonensis [21] = assay: In vitro for leishmanicidal activity against Leishmania amazonensis (PH8) at 25 ug/mL; No lysis of parasites.
Leishmania donovani [22] = assay: In vitro for leishmanicidal activity against Leishmania donovani (PP75) at the concentration of 25 ug/mL.
Leishmania braziliensis [23] = assay: In vitro for leishmanicidal activity against Leishmania brasiliensis (2903) at the concentration of 10 ug/mL.
Leishmania braziliensis [24] = assay: In vitro for leishmanicidal activity against Leishmania brasiliensis (2903) at the concentration of 25 ug/mL.
Leishmania donovani [25] = assay: Tested in vitro for leishmanicidal activity against Leishmania donovani (PP75) at the concentration of 10 ug/mL
Leishmania braziliensis [26] = assay: Tested in vitro for leishmanicidal activity against Leishmania brasiliensis (2903) at the concentration of 100 ug/mL;++ indicates 80-90% lysis of parasites
Leishmania amazonensis [27] = assay: Tested in vitro for leishmanicidal activity against Leishmania amazonensis (PH8) at the concentration of 25 ug/mL; ++ indicates 80-90% lysis of parasites
Leishmania donovani [28] = assay: Tested in vitro for leishmanicidal activity against Leishmania donovani (PP75) at the concentration of 25 ug/mL;++ indicates 80-90% lysis of parasites
Leishmania braziliensis [29] = assay: Tested in vitro for leishmanicidal activity against Leishmania brasiliensis (2903) at the concentration of 25 ug/mL;++ indicates 80-90% lysis of parasites
Leishmania donovani [30] = assay: Tested in vitro for leishmanicidal activity against Leishmania donovani (PP75) at the concentration of 100 ug/mL;+ indicates Less than 70% lysis of parasites
Leishmania braziliensis [31] = assay: In vitro for leishmanicidal activity against Leishmania brasiliensis (2903) at the concentration of 50 ug/mL.
Leishmania braziliensis [32] = assay: Tested in vitro for leishmanicidal activity against Leishmania brasiliensis (2903) at the concentration of 100 ug/mL; + indicates Less than 70% lysis of parasites
Leishmania amazonensis [33] = assay: Tested in vitro for leishmanicidal activity against Leishmania amazonensis (PH8) at the concentration of 100 ug/mL; + indicates Less than 70% lysis of parasites
Leishmania amazonensis [34] = assay: Tested in vitro for leishmanicidal activity against Leishmania amazonensis (PH8) at the concentration of 100 ug/mL; + indicates less than 70% lysis of parasites

SMILES	Activity (Leishmania donovani [2])	Activity (Leishmania donovani [6])	Activity (Leishmania donovani [8])	Activity (Leishmania amazonensis [9])	Activity (Leishmania amazonensis [10])	Activity (Leishmania braziliensis [11])	Activity (Leishmania amazonensis [12])	Activity (Leishmania donovani [16])	Activity (Leishmania amazonensis [18])	Activity (Leishmania amazonensis [21])	Activity (Leishmania donovani [22])	Activity (Leishmania braziliensis [23])	Activity (Leishmania braziliensis [24])	Activity (Leishmania donovani [25])	Activity (Leishmania donovani [30])	Activity (Leishmania braziliensis [31])	Activity (Leishmania braziliensis [32])	also measured
CCCCCCCCCCCCCCC(N)CNCC (configuration not stated)	+	80-90% lysis of parasites	80-90% lysis of parasites	80-90% lysis of parasites	+	+	80-90% lysis of parasites											Activity (Leishmania amazonensis [1]): 80-90% lysis of parasites; Activity (Leishmania donovani [3]): 80-90% lysis of parasites; Activity (Leishmania braziliensis [4]): 80-90% lysis of parasites; Activity (Leishmania braziliensis [5]): 80-90% lysis of parasites; Activity (Leishmania braziliensis [7]): 80-90% lysis of parasites
CCCCCCCCCCCCCCC(N)CNCC(=O)OCC (configuration not stated)	+	Less than 70% lysis of parasites	Less than 70% lysis of parasites	Less than 70% lysis of parasites	+	+	Less than 70% lysis of parasites											Activity (Leishmania braziliensis [4]): Less than 70% lysis of parasites; Activity (Leishmania braziliensis [7]): Less than 70% lysis of parasites; Activity (Leishmania donovani [13]): Less than 70% lysis of parasites; Activity (Leishmania amazonensis [14]): Less than 70% lysis of parasites; Activity (Leishmania braziliensis [15]): Less than 70% lysis of parasites
CCCCCCCCCCCCCCC(CN(CC)CC)NC(=O)OC(C)(C)C (configuration not stated)	+				+	+		+	+									Activity (Leishmania donovani [17]): 80-90% lysis of parasites; Activity (Leishmania amazonensis [19]): 80-90% lysis of parasites; Activity (Leishmania braziliensis [20]): 80-90% lysis of parasites
CCCCCCCCCCCCCCC(N)CNCC(=O)O (configuration not stated)	+				80-90% lysis of parasites		80-90% lysis of parasites			80-90% lysis of parasites	80-90% lysis of parasites	80-90% lysis of parasites	80-90% lysis of parasites	80-90% lysis of parasites				Activity (Leishmania donovani [13]): 80-90% lysis of parasites; Activity (Leishmania amazonensis [14]): 80-90% lysis of parasites; Activity (Leishmania braziliensis [26]): 80-90% lysis of parasites; Activity (Leishmania braziliensis [15]): 80-90% lysis of parasites
CCCCCCCCCCCCCCC(CNCC)NC(=O)OC(C)(C)C (configuration not stated)	80-90% lysis of parasites	80-90% lysis of parasites	80-90% lysis of parasites	80-90% lysis of parasites	+	+	80-90% lysis of parasites	+	+									Activity (Leishmania braziliensis [20]): 80-90% lysis of parasites
CCCCCCCCCCCCCCC(N)CNC(=O)CCCC(=O)O (configuration not stated)	+		80-90% lysis of parasites		+	+	80-90% lysis of parasites	+	+									Activity (Leishmania amazonensis [27]): 80-90% lysis of parasites; Activity (Leishmania donovani [28]): 80-90% lysis of parasites; Activity (Leishmania braziliensis [7]): 80-90% lysis of parasites; Activity (Leishmania braziliensis [29]): 80-90% lysis of parasites
CCCCCCCCCCCCCCC(N)COCc1ccccc1 (configuration not stated)							Less than 70% lysis of parasites	Less than 70% lysis of parasites	Less than 70% lysis of parasites	Less than 70% lysis of parasites	Less than 70% lysis of parasites	Less than 70% lysis of parasites	Less than 70% lysis of parasites	Less than 70% lysis of parasites	Less than 70% lysis of parasites	Less than 70% lysis of parasites	Less than 70% lysis of parasites	Activity (Leishmania amazonensis [33]): Less than 70% lysis of parasites
CCCCCCCCCCCCCCC(N)CN(CC(=O)O)CC(=O)O (configuration not stated)	+	80-90% lysis of parasites		80-90% lysis of parasites	+	+	80-90% lysis of parasites					80-90% lysis of parasites		80-90% lysis of parasites				Activity (Leishmania amazonensis [1]): 80-90% lysis of parasites; Activity (Leishmania donovani [3]): 80-90% lysis of parasites; Activity (Leishmania braziliensis [4]): 80-90% lysis of parasites; Activity (Leishmania braziliensis [5]): 80-90% lysis of parasites
CCCCCCCCCCCCCCC(COCc1ccccc1)NC(=O)OC(C)(C)C (configuration not stated)							Less than 70% lysis of parasites	Less than 70% lysis of parasites	Less than 70% lysis of parasites	Less than 70% lysis of parasites	Less than 70% lysis of parasites	Less than 70% lysis of parasites	Less than 70% lysis of parasites	Less than 70% lysis of parasites	Less than 70% lysis of parasites	Less than 70% lysis of parasites	Less than 70% lysis of parasites	Activity (Leishmania amazonensis [33]): Less than 70% lysis of parasites
CCCCCCCCCCCCCCC(=O)NC(CCCCCCCCCCCCCC)COC(=O)CCCCCCCCCCCCCC (configuration not stated)							Less than 70% lysis of parasites	Less than 70% lysis of parasites	Less than 70% lysis of parasites	Less than 70% lysis of parasites	Less than 70% lysis of parasites	Less than 70% lysis of parasites	Less than 70% lysis of parasites	Less than 70% lysis of parasites	Less than 70% lysis of parasites	Less than 70% lysis of parasites	Less than 70% lysis of parasites	Activity (Leishmania amazonensis [34]): Less than 70% lysis of parasites
CCCCCCCCCCCCCCC(CN(CC(=O)OCC)CC(=O)OCC)NC(=O)OC(C)(C)C (configuration not stated)	80-90% lysis of parasites				80-90% lysis of parasites		80-90% lysis of parasites	80-90% lysis of parasites	80-90% lysis of parasites	80-90% lysis of parasites	80-90% lysis of parasites	80-90% lysis of parasites	80-90% lysis of parasites	80-90% lysis of parasites		80-90% lysis of parasites		Activity (Leishmania braziliensis [26]): 80-90% lysis of parasites
CCCCCCCCCCCCCCC(=O)NC(CCCCCCCCCCCCCC)COC(=O)CCCCCC (configuration not stated)							Less than 70% lysis of parasites	Less than 70% lysis of parasites	Less than 70% lysis of parasites	Less than 70% lysis of parasites	Less than 70% lysis of parasites	Less than 70% lysis of parasites	Less than 70% lysis of parasites	Less than 70% lysis of parasites	Less than 70% lysis of parasites	Less than 70% lysis of parasites	Less than 70% lysis of parasites	Activity (Leishmania amazonensis [34]): Less than 70% lysis of parasites

Source: ChEMBL document CHEMBL1135076, “Leishmanicidal activity of some aliphatic diamines and amino-alcohols” (Bioorg Med Chem Lett, 2002)
